From article PMC4575908 (Chemistry & biology, 2015)
Where “and” joins values, the source holds several entries; their conditions need not be identical. Identical values can stand only once. Like-named read-outs stand apart in the source and are kept apart here.

Assays:
[1] = tested on: patients; details: cited from earlier work
[2] = tested on: CPT-11-induced diarrhea in mice; details: CPT-11 50 mg/kg i.p. without inhibitor

CCc1c2c(nc3ccc(OC(=O)N4CCC(N5CCCCC5)CC4)cc13)-c1cc3c(c(=O)n1C2)COC(=O)[C@]3(O)CC [CPT-11, Irinotecan]
patients showing grade 3–4 diarrhea ([1]; human, in vivo): 31%
patients experiencing diarrhea ([1]; ref Food and Drug Administration package insert for irinotecan): up to 88%
mice with bloody diarrhea ([2]; day 8, 50 mg/kg): ~ 25% and 25%
mice with bloody diarrhea ([2]; day 9, 50 mg/kg): ~ 60% and 60%
mice with bloody diarrhea ([2]; day 10): 100%
